These results are taken from patent US7759526B2 (priority 2000, dated 2010).

Molecules are shown by their SMILES. “Also recorded” adds a separate entry of the source.

Assay [1] concerns human HL-60 promyelecytic leukemia cells. Briefly: Apoptosis of HL-60 cells, Hoechst 33258 stain. In kind it is cell-based. As to conditions: for % apoptosis / programmed cell death (apoptosis): HL-60; for % apoptosis: 24 h; for programmed cell death (apoptosis): dose dependent 0.1 μg/ml to 8 μg/ml. The source says:
The method used, namely determination by the fluorescent Hoechst 33258 stain, is described by T. R. Chen (Cell Res. 104, 255-262, 1977). A Table of results is appended in following Table D.

In assay [2] the test system is tetradecanoylphorbolacetable (TPA) induced erythema of mouse ear. As to conditions: application of a 100 μg/ml solution; Formukong et al. 1988; cited from earlier work.
Assay [3] concerns uptake of endocannabinoids into neuronal cells. Briefly: Uptake of endocannabinoids into neuronal cells. In kind it is cell-based. As to conditions: preliminary data.
The target of another assay is CB2 (Homo sapiens, UniProt P34972). As to conditions: cited from earlier work.
Chain of CB2 (P34972 whole entry, species assumed): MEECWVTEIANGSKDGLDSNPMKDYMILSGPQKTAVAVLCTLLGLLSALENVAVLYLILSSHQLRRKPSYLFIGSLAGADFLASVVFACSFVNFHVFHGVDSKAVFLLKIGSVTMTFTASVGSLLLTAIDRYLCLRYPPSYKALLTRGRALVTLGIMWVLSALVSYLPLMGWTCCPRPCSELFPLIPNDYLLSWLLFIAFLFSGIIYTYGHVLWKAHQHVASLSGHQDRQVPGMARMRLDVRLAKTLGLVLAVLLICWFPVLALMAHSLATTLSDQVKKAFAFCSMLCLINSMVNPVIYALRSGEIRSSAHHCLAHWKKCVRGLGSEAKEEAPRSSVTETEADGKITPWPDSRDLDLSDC
In assay [4] the test system is phenylbenzoquinone writhing. As to conditions: Formukong et al. 1988; cited from earlier work.
Assay [5] is described as follows: Antianxiety and anticonvulsive effects (preliminary data).
For assay [6], the system named is formalin-induced paw licking. The assay can be described thus: Formalin test for peripheral pain. As to conditions: mice; 20 mg/kg; 5 min recorded 30 min after formalin (3.2%). In kind it is in vivo, mouse. As to the method: Thus mice injected with formalin (3.2% dissolved in saline) licked their paws 8±2 times over 5 min, recorded 30 min after the formalin administration.
(§1) Female Sabra mice (2 months old, Harlan-Sprague Dawley, Jerusalem) were used for a series of tests and for the assays for inflammation and peripheral pain. Groups of 5 mice were used in each experiment. Compounds 2a, 2b, 3a and 3b were dissolved in vehicle (ethanol:emulphor:saline=1:1:18) and injected intraperitoneally (i.p.) in volumes of 0.1 ml/10 g in mice as previously described (Hanus et al., 1999).
Pain mediated by the peripheral nervous system, was tested in the ‘formalin test’ for cutaneous (peripheral) pain (Tjolson et al., 1992; Calignano et al., 1998; Jaggar et al, 1998). The compound tested (or vehicle) was injected i.p. Formalin (3.2% dissolved in saline) was injected s.c. in the plantar surface of the hind paw of a mouse (in 20 μl volumes) 90 min after the drug. Immediately after formalin administration nociception was assessed (every 5 min for 1 hr) by the number of times the animal licks for formalin-injected paw.

The test system of assay [7] is arachidonic acid-induced swelling of the ear. Briefly: Arachidonic acid-induced ear inflammation in the mouse. In kind it is in vivo. On the procedure:
Mice (female Sabra) were treated with […] A′ A (in 5 μl EtOH) dispersed on the inner surface of one of the ears. The other ear was treated with 5 μl of EtOH. Ear swelling was assessed by measuring ear thickness with a dial thickness gauge (Mitutoyo, Japan) just before treatment and 30 min after A; A application. The drugs (40 mg/kg for the cannabinoids and 20 mg/kg for indomethacin) were injected i.p. 60 min before the A′ A treatment. *** indicates p<0.001.
The effect of various doses of CBD-7-oic acid (3a) (Example 28), and of CBD-DMH-7-oic acid (3b) (Example 28) and of indomethacin (20 mg/kg) after arachidonic acid-induced swelling of the ear are shown in FIG. 2. The effects were measured over 75 min after the administration of arachidonic acid.
as §1
Ear inflammation was measured by assessing ear tissue swelling after topical application of arachidonic acid. […] The opposite ear served as control (5 μl ethanol). Ear thickness was determined (in 0.01 mm units) every 15 min for 90 min starting immediately after arachidonic acid application using a dial thickness gauge (Mitutoyo, Japan).

A further assay deals with serum TNFα. Briefly: Serum TNFα in mice after ip injection of LPS. In kind it is in vivo. On the procedure:
This anti TNFα effect is also seen in vivo. High levels of TNFα appear in serum of mice after ip injection of 5 mg/kg/mouse lipopolysaccharide (LPS). […] At the lower dose of 0.5 mg/kg 80% suppression of TNFα level was observed. […] Thus 7-hydroxy-CBD (2a) in doses of 10 μg/kg i.p. suppressed serum TNFα in mice (30%).

For assay [8], the system named is release of reactive oxygen intermediates by monocytic RAW 264.7 cells. Briefly: Zymosan-induced release of reactive oxygen intermediates, chemiluminescence. In kind it is cell-based. The source says: Table of results are attached in following Table C.
(§2) The experimental methods used have been described in Gallily et al. (Eur. J. Pharmacol. 406, R5-R7, 2000), Avron and Gallily (J. Leukocyte Biol. 57, 264-268, 1995) and Gallily et al. (J. Pharmacol. Exp. Ther. 283, 918-924, 1997).

In assay [9] the test system is TNFα production by Thioglycollate-elicited macrophages (TGMMΦ). Briefly: TNFα production by thioglycollate-elicited macrophages. As to conditions: TGMΦ; for % inhibition of TNFα titer: 24 hrs. The class given is cell-based, murine. On the procedure: (§3) The inhibition is dose dependent (10 μg-0.001 μg/ml). Tables of results are attached in following Tables A and B.
as §2

Assay [10] has as its system TNFα production by RAW 264.7 mouse monocytic cell line. The assay can be described thus: TNFα production by RAW 264.7 mouse monocytic cell line. Further details: TNFα Titer S50: unit not given beside the values. The class given is cell-based. As to the method:
as §3, §2

The target of another assay is T1, CB1 (Rattus norvegicus, UniProt P20272).
T1 construct: synaptosomal membranes prepared from rat brains; from tissue; host or cells: rat brain synaptosomal membranes
T1 sequence (P20272 whole entry): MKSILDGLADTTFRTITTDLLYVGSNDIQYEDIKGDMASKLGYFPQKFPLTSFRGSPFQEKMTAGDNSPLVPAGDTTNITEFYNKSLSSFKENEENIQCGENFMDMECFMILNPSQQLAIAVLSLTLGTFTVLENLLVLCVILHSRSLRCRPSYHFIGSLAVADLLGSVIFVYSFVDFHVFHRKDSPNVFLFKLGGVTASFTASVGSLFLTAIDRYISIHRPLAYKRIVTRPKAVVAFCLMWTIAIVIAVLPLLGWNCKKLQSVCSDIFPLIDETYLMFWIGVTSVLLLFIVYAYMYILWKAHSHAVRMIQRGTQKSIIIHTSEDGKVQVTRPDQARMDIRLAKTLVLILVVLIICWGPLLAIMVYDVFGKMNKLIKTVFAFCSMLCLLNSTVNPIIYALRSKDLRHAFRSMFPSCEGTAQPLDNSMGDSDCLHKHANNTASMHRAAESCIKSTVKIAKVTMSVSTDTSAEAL
As to conditions: previously described probe; cited from earlier work.

[11] abbreviates: cannabinoid 40 mg/kg i.p., compared with indomethacin 20 mg/kg i.p.
Where [12] appears, read: cannabinoid 5 mg/kg, compared with indomethacin 20 mg/kg.
Setting [13] is: cannabinoid 80 mg/kg, compared with indomethacin 20 mg/kg.

In the case of `C=C(C)[C@@H]1CCC(C)=C[C@H]1c1c(O)cc(CCCCC)cc1O` [CBD, Cannabidiol], the “% apoptosis” value came out at 19% in assay [1] (1 μg/ml, no irradiation); 28% in assay [1] (1 μg/ml, γ-irradiation 800 rad); 33% in assay [1] (4 μg/ml, no irradiation); 45% in [1] (4 μg/ml, γ-irradiation 800 rad); 48% in assay [1] (8 μg/ml, no irradiation); 85% in [1] (8 μg/ml, γ-irradiation 800 rad). The “programmed cell death (apoptosis)” value in assay [1] was “high rate of programmed cell death”. In assay [1] (HL-60 irradiated by γ ray (800 rad) and treated with cannabinoid), the “apoptosis, synergism with γ ray irradiation” value was “up to 85%”. Moreover, the “inhibition of the inflammation response” value in assay [2] is recorded as 92%. In assay [3], the “uptake of endocannabinoids into neuronal cells” value (“uptake” for short) is listed as “prevent the uptake of endocannabinoids into neuronal cells”. The “binding to cannabinoid receptor CB2” value on CB2 is “does not bind”. In addition, in [4], the “analgesic potency compared with aspirin” value is given as “much more potent than aspirin”.

Regarding `C=C(C)[C@@H]1CCC(C)=C[C@H]1c1c(O)cc(C(C)(C)CCCCCC)cc1O` [Compound 1b, CBD-DMH, reference compound], the “uptake” value in [3] is “prevent the uptake of endocannabinoids into neuronal cells”.

For the molecule `C=C(C)[C@@H]1CCC(CO)=C[C@H]1c1c(O)cc(CCCCC)cc1O` [Compound 2a, 7-Hydroxy CBD], the “antianxiety and anticonvulsive effects” value in [5] is “have antianxiety and anticonvulsive effects”. In addition, the “paw licking, late phase of formalin-induced pain behavior” value (from here on “paw licking, late phase”) in assay [6] is “fully blocked the licking”. Moreover, the “antiinflammatory effect on arachidonic acid-induced ear swelling” value (“antiinflammatory effect” for short) in assay [7] (setting [11]) was “less active than the potent antiinflammatory drug indomethacin”. In addition, the “uptake” value in assay [3] is listed as “prevent the uptake of endocannabinoids into neuronal cells”. Besides, the “suppression of serum TNFα” value in the assay with serum TNFα (10 μg/kg i.p.) is listed as 30%.

Regarding `C=C(C)[C@@H]1CCC(CO)=C[C@H]1c1c(O)cc(C(C)(C)CCCCCC)cc1O` [Compound 2b, 7-Hydroxy CBD-DMH], the “antianxiety and anticonvulsive effects” value in assay [5] is “have antianxiety and anticonvulsive effects”. The “paw licking, late phase” value in assay [6] is reported as “fully blocked the licking”. In addition, the “antiinflammatory effect” value in assay [7] (setting [11]) is recorded as “less active than the potent antiinflammatory drug indomethacin”. Also, the “uptake” value in [3] was “prevent the uptake of endocannabinoids into neuronal cells”.

Take `C=C(C)[C@@H]1CCC(C(=O)O)=C[C@H]1c1c(O)cc(CCCCC)cc1O` [Compound 3a, 7-Nor-carboxy CBD]: the “antianxiety and anticonvulsive effects” value in assay [5] was “have antianxiety and anticonvulsive effects”. The “paw licking, late phase” value in assay [6] is given as “fully blocked the licking”. Moreover, the “antiinflammatory effect” value in assay [7] (setting [12]) was “less active than 3b”; in [7] (setting [11]), “essentially equivalent to that of indomethacin”; in assay [7] (setting [13]), “less effective than indomethacin”. The Cherniluminescense peak in [8] (Zymosan + 4 μg/ml) turned out to be 4139; in assay [8] (Zymosan + 10 μg/ml) it was 1041. The “Inhibition % of ROI release” value is given as 31% in [8] (Zymosan + 4 μg/ml) and 83% in assay [8] (Zymosan + 10 μg/ml).

`C=C(C)[C@@H]1CCC(C(=O)O)=C[C@H]1c1c(O)cc(C(C)(C)CCCCCC)cc1O` [Compound 3b, 7-Nor-carboxy CBD DMH]: in [5], the “antianxiety and anticonvulsive effects” value was “have antianxiety and anticonvulsive effects”. Moreover, in [6], the “paw licking, late phase” value is on record as “fully blocked the licking”. Besides, the “antiinflammatory effect” value in assay [7] (setting [12]) is on record as “fully suppressed the inflammation; also recorded: as potent as indomethacin”; in [7] (setting [11]) it was “essentially equivalent to that of indomethacin”; in assay [7] (setting [13]), “less effective than indomethacin”. For the same molecule, the “TNFα Titer (S50) After 24 hrs.” value in assay [9] (LPS + 0.01 μg/ml) is 535; in assay [9] (LPS + 1 μg/ml), 501; in assay [9] (LPS + 5 μg/ml), 406; in assay [9] (LPS + 10 μg/ml), 159. The “% inhibition of TNFα titer” value in [9] (LPS + 0.01 μg/ml) was 36%; in assay [9] (LPS + 1 μg/ml) it was 40%; in [9] (LPS + 5 μg/ml) it was 51%; in [9] (LPS + 10 μg/ml), 81%; in assay [10] (LPS + 0.01 μg/ml), 11%; in assay [10] (LPS + 0.1 μg/ml), 45%. Also, the “% inhibition of TNFα titer” value in assay [10] (LPS + 1 μg/ml) stood at 63%; in assay [10] (LPS + 4 μg/ml) it was 65%; in [10] (LPS + 10 μg/ml), 91%. For the same molecule, the “% apoptosis” value came to 15% in assay [1] (5 μg/ml, no irradiation); 25% in assay [1] (5 μg/ml, γ-irradiation 800 rad); 27% in assay [1] (10 μg/ml, no irradiation); 58% in assay [1] (10 μg/ml, γ-irradiation 800 rad). Also, the “programmed cell death (apoptosis)” value in assay [1] was “high rate of programmed cell death”. Further, the “TNFα Titer S50” value in assay [10] (LPS + 0.01 μg/ml) is given as 5818; in assay [10] (LPS + 0.1 μg/ml), 357.6; in [10] (LPS + 1 μg/ml), 2384; in assay [10] (LPS + 4 μg/ml), 2300; in [10] (LPS + 10 μg/ml) it was 615. Also, the “suppression of TNFα level in serum” value in the assay with serum TNFα (0.5 mg/kg simultaneously with LPS) is 80%. The “suppression of serum TNFα level” value with serum TNFα (0.5 and 5 mg/kg simultaneously with LPS 5 mg/kg ip) is reported as “suppressed serum TNFα level”. For the same molecule, the results for the Cherniluminescense peak in assay [8] (Zymosan + 4 μg/ml) and in assay [8] (Zymosan + 10 μg/ml) were 1524 and 432, respectively. Further, the “Inhibition % of ROI release” value in assay [8] (Zymosan + 4 μg/ml) was determined as 83%; in assay [8] (Zymosan + 10 μg/ml), 95%.

For the molecule `CCCCCCC(C)(C)c1cc(O)c2c(c1)OC(C)(C)[C@@H]1CC[C@@H](CO)C[C@@H]21` [[^3H]HU-243], the inhibitory constant (Ki) (usually a dissociation constant, usually derived from enzyme kinetics or from competition with a known ligand) at CB1 is 0.045 ± 0.007 nM.
